Assay results as given in PubChem BioAssay AID2060510 (Molecular Pharmacology Branch, DTP, NCI, 2025).
pIC50: −log10 of the molar value.

Tested on: 439559-082-T-J2-PDC spheroids viability
Test: Anticancer human tumor 439559-082-T-J2-PDC patient-derived colon adenocarcinoma cell line growth inhibition [GQUAD]
Conditions: for pIC50: curve of first compound; for viability, T/C: stronger effect = lower value
From the text: DNA G-quadruplex Stabilizer Agents in Combinations in Complex Spheroids
A high-throughput screen of multi-cell type tumor spheroids was designed to identify active combinations of DNA G-quadruplex stabilizer agents and targeted small molecules. Complex spheroids include a stromal component modeled by human endothelial cells (HUVEC) and fibroblasts modeled by human mesenchymal stem cells (MSCs). The concentration ranges selected for each drug and investigational agent were based upon clinically achievable concentrations if the clinical Cmax of the agent was known.
Compounds. The drugs and investigational agents: pidnarulex (CX-5461; NSC782164), APTO-253 (NSC789042), BRACO-19 (NSC847499), peposertib (NSC802822), ceralasertib (NSC780249), elimusertib (NSC800525), camonsertib (NSC841442), AZD-1390 (NSC803789), olaparib (NSC753686), talazoparib (NSC767125), ART-558 (NSC835418), sotorasib (NSC818433), MRTX-1133 (NSC836407), SN-38 (NSC673596), topotecan (NSC609699), etoposide (NSC141540), doxorubicin (NSC123127), gemcitabine (NSC613327), 5-fluorouracil (NSC19893), paclitaxel (NSC125973), vemurafenib (NSC761431), panobinostat (NSC761190), R-306465 (JNJ-16241199; NSC773264), adavosertib (NSC754352), TP-3654 (NSC805149), carboplatin (NSC241240), KSQ-4279 (NSC840948), and staurosporine (NSC755774) were obtained from the National Cancer Institute (NCI) Developmental Therapeutics Program Chemical Repository (34). The FDA-approved anticancer drug set is available from the NCI Developmental Therapeutics Program. […] The stock solutions were prepared in dimethyl sulfoxide (DMSO, Sigma-Aldrich, St. Louis, MO, cat. D2650) at 800-fold the tested concentration and stored at -70 degrees C prior to their use. All drugs and investigational agents were tested over a range starting from a high concentration at or near the clinical Cmax and decreasing in half-log increments. If the clinical Cmax for an agent had not been determined, the highest concentration tested was 10 microM.
2.3 Cell Culture. All cells were maintained in an incubator at 37 degrees C and 5% CO2 with 95% humidity. The PDC lines were cultured according to standard operating procedures established by the NCI PDMR. All PDCs were thawed and cultured in Matrigel-coated flasks prepared with a working solution of 1X Ham's F-12 nutrient mix, without supplementation (Invitrogen, cat. 11765054), 100 U/mL penicillin-streptomycin (Invitrogen, cat. 15140122), and 2.5% Matrigel (Corning Inc., cat. 354248) for the first three passages. The 857933-349-R-J2-PDC line was cultured in 6C/Colon 1B media, which includes advanced DMEM/F-12 (Thermo Fisher Scientific, cat. 12634028), 10 mM HEPES (Thermo Fisher Scientific, cat. 15630080), 1X GlutaMAX supplement (Thermo Fisher Scientific, cat. 35050061), 0.1 mg/mL primocin (InvivoGen, cat. ant-pm-2), 10% defined fetal bovine serum, heat inactivated (HyClone Laboratories Inc., cat. SH30070.03HI), 50% L-WRN conditioned media (ATCC, cat. CRL-3276), 1.25 mM N-Acetyl-L-cysteine (Sigma-Aldrich, cat. A9165), 10 mM nicotinamide (Sigma-Aldrich, cat. N0636), 1X B-27 supplement (Thermo Fisher Scientific, cat. 17504044), 1X N-2 supplement (Thermo Fisher Scientific, cat. 17502048), 10 microM Y-27632 dihydrochloride (Tocris Bioscience, cat. 1254), and 50 ng/mL human EGF recombinant protein (Thermo Fisher Scientific, cat. PHG0311). The 485176-168-R4-J1-PDC line was cultured in Panc media, which includes all 6C/Colon 1B media components plus 100 ng/mL human FGF-10 (Thermo Fisher Scientific, cat. 100-26), 500 nM SB-431542 (Selleckchem, cat. S1067), and gastrin (Tocris, cat. 3006).
[…]
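Further: spheroids exposed to the agents for 7 days before readout.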
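Wherever viability, T/C is given: percent of luminescence signal in DMSO vehicle wells taken as 100% viability.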

## CC1COCCN1c1cc(C2(O)CC3CCC(C2)O3)c2cnn(-c3ccn[nH]3)c2n1 (configuration not stated) + Cc1cnc(CNC(=O)c2c(=O)c3ccc(N4CCCN(C)CC4)nc3n3c2sc2ccccc23)cn1
Second compound 0.0316 µM
  pIC50: 6.05
Second compound 0.1 µM
  pIC50: 6.23
Second compound 0.316 µM
  pIC50: 6.44
Second compound 1 µM
  pIC50: 6.47
Second compound 3.16 µM
  pIC50: 6.56
Second compound 10 µM
  pIC50: 6.87
Second compound 0.0316 µM, first compound 0.0316 µM
  viability, T/C: 84.9%
Second compound 0.0316 µM, first compound 0.1 µM
  viability, T/C: 85.1%
Second compound 0.0316 µM, first compound 0.316 µM
  viability, T/C: 66.8%
Second compound 0.0316 µM, first compound 1 µM
  viability, T/C: 47.8%
Second compound 0.0316 µM, first compound 3.16 µM
  viability, T/C: 38.4%
Second compound 0.0316 µM, first compound 10 µM
  viability, T/C: 30.4%
Second compound 0.1 µM, first compound 0.0316 µM
  viability, T/C: 84.4%
Second compound 0.1 µM, first compound 0.1 µM
  viability, T/C: 77.6%
Second compound 0.1 µM, first compound 0.316 µM
  viability, T/C: 57.6%
Second compound 0.1 µM, first compound 1 µM
  viability, T/C: 43.8%
Second compound 0.1 µM, first compound 3.16 µM
  viability, T/C: 34.6%
Second compound 0.1 µM, first compound 10 µM
  viability, T/C: 33.2%
Second compound 0.316 µM, first compound 0.0316 µM
  viability, T/C: 82.5%
Second compound 0.316 µM, first compound 0.1 µM
  viability, T/C: 68.7%
Second compound 0.316 µM, first compound 0.316 µM
  viability, T/C: 54.3%
Second compound 0.316 µM, first compound 1 µM
  viability, T/C: 34.3%
Second compound 0.316 µM, first compound 3.16 µM
  viability, T/C: 37.9%
Second compound 0.316 µM, first compound 10 µM
  viability, T/C: 31.3%
Second compound 1 µM, first compound 0.0316 µM
  viability, T/C: 71.4%
Second compound 1 µM, first compound 0.1 µM
  viability, T/C: 68.2%
Second compound 1 µM, first compound 0.316 µM
  viability, T/C: 49.6%
Second compound 1 µM, first compound 1 µM
  viability, T/C: 36.5%
Second compound 1 µM, first compound 3.16 µM
  viability, T/C: 28.8%
Second compound 1 µM, first compound 10 µM
  viability, T/C: 26.6%
Second compound 3.16 µM, first compound 0.0316 µM
  viability, T/C: 65.5%
Second compound 3.16 µM, first compound 0.1 µM
  viability, T/C: 57.8%
Second compound 3.16 µM, first compound 0.316 µM
  viability, T/C: 49.9%
Second compound 3.16 µM, first compound 1 µM
  viability, T/C: 34.6%
Second compound 3.16 µM, first compound 3.16 µM
  viability, T/C: 25.2%
Second compound 3.16 µM, first compound 10 µM
  viability, T/C: 27.3%
Second compound 10 µM, first compound 0.0316 µM
  viability, T/C: 65.6%
Second compound 10 µM, first compound 0.1 µM
  viability, T/C: 50.5%
Second compound 10 µM, first compound 0.316 µM
  viability, T/C: 44.5%
Second compound 10 µM, first compound 1 µM
  viability, T/C: 32.8%
Second compound 10 µM, first compound 3.16 µM
  viability, T/C: 27.6%
Second compound 10 µM, first compound 10 µM
  viability, T/C: 21.2%
